What was measured:
Assay type in all cases: in vivo
corn (Zea mays) = experiment: Test A greenhouse herbicide test, pre- and postemergence; conditions: Postemergence
Method in brief: (§1)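 Visual injury ratings, 0 (no effect) to 100 (complete control), versus untreated plants after roughly 10 d in a greenhouse. Compounds, formulated in a surfactant-containing non-phytotoxic solvent, were sprayed on loam–sand soil after sowing (pre) or on one- to two-leaf plants 2–10 cm tall (post).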

[1] = test system: wheat (Triticum aestivum); experiment: as above; conditions: Postemergence
Method in brief: as §1

[2] = test system: ryegrass, Italian (Italian ryegrass, Lolium multiflorum); experiment: as above
Method in brief: as §1

[3] = test system: pigweed (Amaranthus retroflexus); experiment: as above
Method in brief: as §1

[4] = test system: barnyardgrass (Echinochloa crus-galli); experiment: as above
Method in brief: as §1

kochia (Kochia scoparia) = experiment: as above
Method in brief: as §1

[5] = test system: ragweed (common ragweed, Ambrosia elatior); experiment: as above
Method in brief: as §1

[6] = test system: foxtail, giant (giant foxtail, Setaria faberii); experiment: as above
Method in brief: as §1

[7] = test system: blackgrass (Alopecurus myosuroides); experiment: Test A greenhouse herbicide test, postemergence
Method in brief: (§2)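 Scores are visual injury ratings from 0 (no effect) to 100 (complete control) versus untreated plants, taken roughly 10 d after treatment in the greenhouse. Treatment was postemergence, on one- to two-leaf plants 2–10 cm high growing in a loam soil/sand mix.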

[8] = test system: galium (catchweed bedstraw, Galium aparine); experiment: Test A greenhouse herbicide test, postemergence
Method in brief: as §2

rice (Oryza sativa) = experiment: Test B flooded paddy test; conditions: 250 g ai/ha, Flood; visual rating on scale of 0 to 100 where 0 is no effect and 100 is complete control; 13 to 15 d after treatment
Method in brief: (§3)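 Ratings use a 0-100 visual scale, where 100 is complete control, and compare treated plants with controls after 13 to 15 d of greenhouse growth. Compound went straight into paddy water kept 3 cm over the soil surface, applied to seedlings at the 2-leaf stage.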

[9] = test system: ducksalad (Heteranthera limosa); experiment: Test B flooded paddy test; conditions: 250 g ai/ha, Flood; visual rating on scale of 0 to 100 where 0 is no effect and 100 is complete control; 13 to 15 d after treatment
Method in brief: as §3

[10] = test system: barnyardgrass (Echinochloa crus-galli); experiment: Test B flooded paddy test; conditions: 250 g ai/ha, Flood; visual rating on scale of 0 to 100 where 0 is no effect and 100 is complete control; 13 to 15 d after treatment
Method in brief: as §3

[11] = test system: sedge, umbrella (small-flower umbrella sedge, Cyperus difformis); experiment: Test B flooded paddy test; conditions: 250 g ai/ha, Flood; visual rating on scale of 0 to 100 where 0 is no effect and 100 is complete control; 13 to 15 d after treatment
Method in brief: as §3

[12] = 125 g ai/ha, 0 to 100 scale, 0 no effect, 100 complete control
[13] = 500 g ai/ha, visual rating after approx. 10 d, 0 to 100 scale (0 no effect, 100 complete control)
[14] = Postemergence, 125 g ai/ha, 0 to 100 scale, 0 no effect, 100 complete control
[15] = Postemergence, 500 g ai/ha, visual rating after approx. 10 d, 0 to 100 scale (0 no effect, 100 complete control)
[16] = Preemergence, 125 g ai/ha, visual injury rating, 0 to 100 scale (0 no effect, 100 complete control), approx. 10 d
[17] = Preemergence, 500 g ai/ha, 0 to 100 scale where 0 is no effect and 100 is complete control

Row | SMILES | Plant response rating, Corn (corn (Zea mays); [12]) | Plant response rating, Corn (corn (Zea mays); [13]) | Plant response rating, Wheat [1, 12] | Plant response rating, Wheat [1, 13] | Plant response rating, Ryegrass, Italian [2, 14] | Plant response rating, Ryegrass, Italian [2, 15] | Plant response rating, Ryegrass, Italian [2, 16] | Plant response rating, Ryegrass, Italian [2, 17] | Plant response rating, Pigweed [3, 14] | Plant response rating, Pigweed [3, 15] | Plant response rating, Pigweed [3, 16] | Plant response rating, Pigweed [3, 17] | Plant response rating, Barnyardgrass [4, 14] | Plant response rating, Barnyardgrass [4, 15] | Plant response rating, Barnyardgrass [4, 16] | Plant response rating, Barnyardgrass [4, 17] | Plant response rating, Kochia (kochia (Kochia scoparia); [14]) | Plant response rating, Kochia (kochia (Kochia scoparia); [15]) | Plant response rating, Kochia (kochia (Kochia scoparia); [16]) | Plant response rating, Kochia (kochia (Kochia scoparia); [17]) | further results
1 | CC(=O)Oc1c(C)nn(C)c(=O)c1-c1ccc(Cl)c2ccccc12 [Compound 157] | 0 | 40 | 0 | 50 | 100 | 100 | 100 | 100 | 90 | 100 | 100 | 100 | 50 | 80 | 70 | 90 | 100 | 100 | 100 | 100 | Plant response rating, Ragweed [5, 14]: 100; Plant response rating, Ragweed [5, 15]: 100; Plant response rating, Ragweed [5, 16]: 60; Plant response rating, Ragweed [5, 17]: 90; Plant response rating, Foxtail, Giant [6, 14]: 60; Plant response rating, Foxtail, Giant [6, 15]: 80; Plant response rating, Foxtail, Giant [6, 16]: 50; Plant response rating, Foxtail, Giant [6, 17]: 80; Plant response rating, Blackgrass [7, 12]: 60; Plant response rating, Blackgrass [7, 13]: 70; Plant response rating, Galium [8, 12]: 100; Plant response rating, Galium [8, 13]: 100; Plant response rating, Rice (rice (Oryza sativa)): 0; Plant response rating, Ducksalad [9]: 0; Plant response rating, Barnyardgrass [10]: 20; Plant response rating, Sedge, Umbrella [11]: 75
2 | Cc1ccc2sc(C)c(-c3c(OCC#N)c(C)nn(C)c3=O)c2c1 [Compound 160] | 0 | 0 | 0 | 0 | 30 | 90 | 20 | 80 | 80 | 90 | 50 | 100 | 10 | 20 | 10 | 10 | 30 | 60 | 20 | 20 | Plant response rating, Ragweed [5, 14]: 70; Plant response rating, Ragweed [5, 15]: 80; Plant response rating, Ragweed [5, 16]: 30; Plant response rating, Ragweed [5, 17]: 80; Plant response rating, Foxtail, Giant [6, 14]: 10; Plant response rating, Foxtail, Giant [6, 15]: 20; Plant response rating, Foxtail, Giant [6, 16]: 10; Plant response rating, Foxtail, Giant [6, 17]: 30; Plant response rating, Blackgrass [7, 12]: 10; Plant response rating, Blackgrass [7, 13]: 20; Plant response rating, Galium [8, 12]: 70; Plant response rating, Galium [8, 13]: 90; Plant response rating, Rice (rice (Oryza sativa)): 0; Plant response rating, Ducksalad [9]: 0; Plant response rating, Barnyardgrass [10]: 0; Plant response rating, Sedge, Umbrella [11]: 0
3 | Cc1nn(C)c(=O)c(-c2c([N+](=O)[O-])ccc3ccccc23)c1OC(=O)C(C)(C)C [Compound 163] | 0 | 0 | 0 | 0 | 20 | 70 | 10 | 50 | 0 | 20 | 30 | 70 | 0 | 0 | 0 | 0 | 0 | 20 | 0 | 0 | Plant response rating, Ragweed [5, 14]: 0; Plant response rating, Ragweed [5, 15]: 0; Plant response rating, Ragweed [5, 16]: 0; Plant response rating, Ragweed [5, 17]: 0; Plant response rating, Foxtail, Giant [6, 14]: 0; Plant response rating, Foxtail, Giant [6, 15]: 0; Plant response rating, Foxtail, Giant [6, 16]: 0; Plant response rating, Foxtail, Giant [6, 17]: 0; Plant response rating, Blackgrass [7, 12]: 0; Plant response rating, Blackgrass [7, 13]: 20; Plant response rating, Galium [8, 12]: 30; Plant response rating, Galium [8, 13]: 60; Plant response rating, Rice (rice (Oryza sativa)): 0; Plant response rating, Ducksalad [9]: 0; Plant response rating, Barnyardgrass [10]: 0; Plant response rating, Sedge, Umbrella [11]: 0
4 | Cc1n[nH]c(=O)c(-c2cccc3ccccc23)c1O [Compound 169] | 0 | 30 | 0 | 30 | 70 | 100 | 80 | 100 | 20 | 70 | 50 | 100 | 0 | 20 | 0 | 30 | 40 | 100 | 20 | 90 | Plant response rating, Ragweed [5, 14]: 0; Plant response rating, Ragweed [5, 15]: 80; Plant response rating, Ragweed [5, 16]: 0; Plant response rating, Ragweed [5, 17]: 20; Plant response rating, Foxtail, Giant [6, 14]: 0; Plant response rating, Foxtail, Giant [6, 15]: 30; Plant response rating, Foxtail, Giant [6, 16]: 0; Plant response rating, Foxtail, Giant [6, 17]: 30; Plant response rating, Blackgrass [7, 12]: 10; Plant response rating, Blackgrass [7, 13]: 20; Plant response rating, Galium [8, 12]: 30; Plant response rating, Galium [8, 13]: 70; Plant response rating, Rice (rice (Oryza sativa)): 0; Plant response rating, Ducksalad [9]: 0; Plant response rating, Barnyardgrass [10]: 0; Plant response rating, Sedge, Umbrella [11]: 0
5 | Cc1nn(C)c(=O)c(-c2c(C)sc3ccccc23)c1OC(=O)N1CCOCC1 [Compound 170] | 0 | 0 | 0 | 0 | 0 | 50 | 0 | 40 | 70 | 80 | 30 | 100 | 0 | 10 | 0 | 0 | 0 | 70 | 0 | 0 | Plant response rating, Ragweed [5, 14]: 40; Plant response rating, Ragweed [5, 15]: 80; Plant response rating, Ragweed [5, 16]: 0; Plant response rating, Ragweed [5, 17]: 20; Plant response rating, Foxtail, Giant [6, 14]: 0; Plant response rating, Foxtail, Giant [6, 15]: 10; Plant response rating, Foxtail, Giant [6, 16]: 0; Plant response rating, Foxtail, Giant [6, 17]: 0; Plant response rating, Blackgrass [7, 12]: 0; Plant response rating, Blackgrass [7, 13]: 10; Plant response rating, Galium [8, 12]: 40; Plant response rating, Galium [8, 13]: 80; Plant response rating, Rice (rice (Oryza sativa)): 0; Plant response rating, Ducksalad [9]: 0; Plant response rating, Barnyardgrass [10]: 0; Plant response rating, Sedge, Umbrella [11]: 60
